Paper PMC6309308 (Cell chemical biology, 2018)
Where “and” joins values, the source holds several entries; their conditions need not be identical. Equal entries are not always repeated.

Legend:
IκB = assay: IκBα degradation assay after TNF-α stimulation; format: cell-based, human; details: Hela cells, 10 minutes pre-treatment, TNF-α 30 minutes
HCT116 cells = assay: Cell detachment; details: ETPs 10 μM, 3 hours
[1] = target: purified human 26S proteasome (Homo sapiens, UniProt O00487+P28074); assay: SDS-PAGE analysis of proteasome activity; format: biochemical; details: 37 °C, 2 hours; 20 μM capzimin, 10 μM carfilzomib
26S proteasome = 26S proteasome (Homo sapiens, UniProt O00487); assay: Fluorescence polarization protein degradation assay with purified 26S proteasome; details: 37 °C, SOP6, gliotoxin 10 µM each
[2] = test system: ubiquitin conjugates in HCT116 cells; assay: Immunoblot of poly-ubiquitinated species; details: HCT116, 10 μM, 3 hours
Cul1 in HCT116 cells = assay: Immunoblot of Nedd8-conjugated Cul1; details: HCT116, 6 hours
[3] = target: chymotrypsin-like activity of the 20S proteasome (Homo sapiens, UniProt P28074); assay: Suc-LLVY-amc fluorescence assay of chymotrypsin-like activity; details: 20 µM compound, 20 μM Suc-LLVY-amc, 15 nM 26S proteasome
[4] = test system: bortezomib-resistant (BTZR) RPE1 cells; assay: Bortezomib-resistant RPE1 cell proliferation; format: cell-based; details: BTZR RPE cells, 72 hours
Csn5 = Csn5 (Homo sapiens, UniProt Q92905); assay: Csn5 inhibition assay; format: biochemical; details: read-out: IC50 Csn5
[5] = test system: c-Myc mRNA in HCT116 cells; assay: c-Myc mRNA expression by qRT-PCR; format: cell-based, human; details: 10 μM, 4 hours, normalized to GAPDH
Rpn11 = Rpn11 (Homo sapiens, UniProt O00487); assay: Rpn11 activity assay with Ub4-peptide substrate; format: biochemical; details: read-out: IC50 Rpn11
NFE2L1 in HCT116 cells = assay: Immunoblot of NFE2L1 accumulation; details: HCT116, 6 hours
AMSH = target: T1, AMSH (Homo sapiens, UniProt O95630); assay: AMSH inhibition assay; format: biochemical; details: read-out: IC50 AMSH
T1 sequence (O95630 1-424): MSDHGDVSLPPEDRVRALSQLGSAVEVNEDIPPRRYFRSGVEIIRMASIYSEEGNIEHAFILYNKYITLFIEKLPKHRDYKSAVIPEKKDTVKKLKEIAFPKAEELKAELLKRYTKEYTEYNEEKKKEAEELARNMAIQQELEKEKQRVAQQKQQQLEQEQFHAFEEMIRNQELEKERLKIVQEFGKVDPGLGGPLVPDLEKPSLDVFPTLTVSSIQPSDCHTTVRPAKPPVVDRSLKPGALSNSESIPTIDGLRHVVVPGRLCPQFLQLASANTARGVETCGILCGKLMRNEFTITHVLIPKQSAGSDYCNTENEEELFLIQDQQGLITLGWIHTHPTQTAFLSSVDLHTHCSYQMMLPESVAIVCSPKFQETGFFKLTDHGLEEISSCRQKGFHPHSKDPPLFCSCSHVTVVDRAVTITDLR

WT RPE1 cells = assay: RPE1 WT cell proliferation; format: cell-based; details: WT RPE cells, 72 hours
[6] = test system: unfolded protein response in HCT116 cells; assay: Unfolded protein response immunoblot; format: cell-based, human; details: HCT116, 6 hours
[7] = target: Human carbonic anhydrase II (hCAII) (Homo sapiens, UniProt P00918); assay: hCAII assay; format: biochemical; details: read-out: IC50 hCAII; 10 nM hCAII, pH 8.0
MMP-2 = target: T2, MMP-2 (Homo sapiens, UniProt P08253); assay: MMP-2 assay; format: biochemical; details: read-out: IC50 MMP-2
T2 sequence (P08253 110-660): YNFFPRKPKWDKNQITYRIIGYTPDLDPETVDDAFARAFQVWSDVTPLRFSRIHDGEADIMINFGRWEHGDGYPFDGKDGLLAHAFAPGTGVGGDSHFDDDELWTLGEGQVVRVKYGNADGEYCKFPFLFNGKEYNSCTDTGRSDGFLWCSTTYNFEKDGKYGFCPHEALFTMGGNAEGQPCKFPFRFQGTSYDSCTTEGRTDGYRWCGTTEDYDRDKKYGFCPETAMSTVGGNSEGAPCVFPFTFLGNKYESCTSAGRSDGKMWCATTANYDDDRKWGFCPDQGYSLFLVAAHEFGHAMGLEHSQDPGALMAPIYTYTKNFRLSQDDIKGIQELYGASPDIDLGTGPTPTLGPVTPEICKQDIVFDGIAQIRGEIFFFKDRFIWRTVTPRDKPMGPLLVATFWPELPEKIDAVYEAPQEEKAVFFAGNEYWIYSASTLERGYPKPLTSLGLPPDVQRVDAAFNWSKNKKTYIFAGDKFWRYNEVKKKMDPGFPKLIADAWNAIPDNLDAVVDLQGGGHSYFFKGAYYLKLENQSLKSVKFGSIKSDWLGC

[8] = test system: HCT116 human colon cancer cells; assay: HCT116 cell proliferation; format: cell-based

## CN1C(=O)[C@]2(Cc3cn([C@]45C[C@@]67SS[C@@](CO)(C(=O)N6[C@H]4Nc4ccccc45)N(C)C7=O)c4ccccc34)SS[C@@]1(CO)C(=O)N2C [chetomin]
IκB
  effect on degradation of IκB induced by TNF-α: strongly stabilized IκB

## CC(C)C[C@H](NC(=O)[C@H](Cc1ccccc1)NC(=O)c1cnccn1)B(O)O [bortezomib]
HCT116 cells
  cell detachment: not observed

## Nc1ncnc2c1ncn2[C@@H]1O[C@H](COP(=O)(O)OP(=O)(O)NP(=O)(O)O)[C@@H](O)[C@H]1O [AMP-PNP]
[1]
  degradation of UbnGST-Wbp2 by 26S proteasome (SDS-PAGE): blocked

## CC(C)C[C@H](NC(=O)[C@H](CCc1ccccc1)NC(=O)CN1CCOCC1)C(=O)N[C@@H](Cc1ccccc1)C(=O)N[C@@H](CC(C)C)C(=O)[C@@]1(C)CO1 [carfilzomib]
[1]
  degradation of UbnGST-Wbp2 by 26S proteasome (SDS-PAGE): blocked

## Nc1ncnc2c1ncn2[C@@H]1O[C@H](CO[P@](=O)(O)O[P@](=O)(O)O[P@@](=O)(O)S)[C@@H](O)[C@H]1O [ATPγS]
26S proteasome
  effect on decline in fluorescence polarization (K48UbnGST-Wbp2 degradation): inhibited

## O=C(NCCc1nccs1)c1cnc2c(SSc3cccc4cc(C(=O)NCCc5nccs5)cnc34)cccc2c1 [capzimin]
[1]
  degradation of UbnGST-Wbp2 by 26S proteasome (SDS-PAGE): blocked
HCT116 cells
  cell detachment: not observed

## CN1C(=O)[C@]23CC4=CC=C[C@H](O)[C@H]4N2C(=O)[C@@]1(CO)SS3 [gliotoxin]
IκB
  effect on degradation of IκB induced by TNF-α: strongly stabilized IκB
HCT116 cells
  cell detachment: induce cell detachment
[2]
  accumulation of poly-ubiquitinated species: led to the accumulation of ubiquitinated species
Cul1 in HCT116 cells
  accumulation of Nedd8-conjugated Cul1: caused accumulation of Nedd8-conjugated Cul1
[3]
  inhibition of chymotrypsin-like activity of the proteasome: do not inhibit

## O=C1[C@H]2N(Cc3ccccc3)C(=O)[C@@](Cc3ccccc3)(N1Cc1ccccc1)S2=S (mixture of isomers) [SOP11, (±)-(1S,4S)-1,2,5-tribenzyl-7-thia-2,5-diazabicyclo[2.2.1]heptane-3,6-dione 7-sulfide]
[4]
  GI50: ~8 µM
Csn5
  IC50: 0.6 ± 0.2 µM
[5]
  level of c-Myc mRNA: decreased
Rpn11
  IC50: 1.3 ± 0.3 µM
HCT116 cells
  cell detachment: did not detach cells
NFE2L1 in HCT116 cells
  accumulation of processed NFE2L1: induced accumulation of processed NFE2L1
AMSH
  IC50: 0.9 ± 0.1 µM
WT RPE1 cells
  GI50: ~8 µM
[6]
  unfolded protein response (UPR): provoked a pronounced UPR
[7]
  IC50: > 100 µM
MMP-2
  IC50: > 100 µM
[8]
  GI50: ~4.7 µM and 4.7 µM
